Test results published in publication PMC4503722, “Novel Phenotypic Outcomes Identified for a Public Collection of Approved Drugs from a Publicly Accessible Panel of Assays” (PLoS ONE, 2015).

Assays:
[1] = system: alkaline phosphatase (ALP) activity in C2C12 cells; type: cell-based; settings: assay number 6; concentration response
STC-1 cell line = type: cell-based, mouse; settings: assay number 13
NCI-H716 cells = assay: cells; type: cell-based, Human; settings: assay number 12
[2] = system: nuclear β-catenin in C2C12 cells; assay: cells; type: cell-based; settings: assay number 5; concentration response
[3] = system: ECFC/ADSC co-culture cell nuclei number
DLD-1 = assay: cells; type: cell-based; settings: assay number 23
HT-29 = assay: cells; type: cell-based; settings: assay number 28
hJAK2 = biological target: T1, hJAK2 (Homo sapiens, UniProt O60674); assay: Cerep LANCE kinase assay hJAK2 (S1 assay 33); type: biochemical; settings: assay number 33
T1 construct: purchased Cerep (LANCE kinase assay platform, contract assay)

INS-1E cells = assay: cells; type: cell-based, rat; settings: assay number 8; 5 mM glucose;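 also: secreted insulin quantified by homogeneous immunoassay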
SNU-C1 = assay: cells; type: cell-based; settings: assay number 30
[4] = system: endothelial tube formation in co-cultures of ECFCs and ADSCs treated with VEGF; assay: cells; type: cell-based, human
Colo320 = assay: cells; type: cell-based; settings: assay number 27
RKO = assay: cells; type: cell-based; settings: assay number 29
SW480 = assay: cells; type: cell-based; settings: assay number 24
[5] = system: HCT116 cells treated with a GSK3β inhibitor; assay: cells; type: cell-based; settings: assay number 26; GSK3b inhibitor pretreated
hFLT3 = biological target: T2, hFLT3 (Homo sapiens, UniProt P36888); assay: Cerep LANCE kinase assay hFLT3 (S1 assay 35); type: biochemical; settings: assay number 35
T2 construct: purchased Cerep (LANCE kinase assay platform, contract assay)

HeLa cells = assay: cells; type: cell-based; settings: for Hela CellCycMod PI 2N IC50/EC50: assay number 14; for Hela CellCycMod PI S Phase IC50/EC50: assay number 15; for Hela CellCycMod PI 4N IC50/EC50: assay number 16; for Hela CellCycMod PI MI IC50/EC50: assay number 17; for Hela CellCycMod PI Cell Number IC50/EC50: assay number 18
hGSK3b = biological target: T3, hGSK3b (Homo sapiens, UniProt P49841); assay: Cerep LANCE kinase assay hGSK3b (S1 assay 34); type: biochemical; settings: assay number 34
T3 construct: purchased Cerep (LANCE kinase assay platform, contract assay)

hp70S6K1 (RPS6KB1) = biological target: T4, hp70S6K1 (RPS6KB1) (Homo sapiens, UniProt P23443); assay: Cerep LANCE kinase assay hp70S6K1 (S1 assay 31); type: biochemical; settings: assay number 31
T4 construct: purchased Cerep (LANCE kinase assay platform, contract assay)

hKDR = biological target: T5, hKDR (Homo sapiens, UniProt P35968); assay: Cerep LANCE kinase assay hKDR (S1 assay 32); type: biochemical; settings: assay number 32
T5 construct: purchased Cerep (LANCE kinase assay platform, contract assay)

HCT116 = assay: cells; type: cell-based; settings: assay number 25; basal

T5 sequence (P35968 20-1356): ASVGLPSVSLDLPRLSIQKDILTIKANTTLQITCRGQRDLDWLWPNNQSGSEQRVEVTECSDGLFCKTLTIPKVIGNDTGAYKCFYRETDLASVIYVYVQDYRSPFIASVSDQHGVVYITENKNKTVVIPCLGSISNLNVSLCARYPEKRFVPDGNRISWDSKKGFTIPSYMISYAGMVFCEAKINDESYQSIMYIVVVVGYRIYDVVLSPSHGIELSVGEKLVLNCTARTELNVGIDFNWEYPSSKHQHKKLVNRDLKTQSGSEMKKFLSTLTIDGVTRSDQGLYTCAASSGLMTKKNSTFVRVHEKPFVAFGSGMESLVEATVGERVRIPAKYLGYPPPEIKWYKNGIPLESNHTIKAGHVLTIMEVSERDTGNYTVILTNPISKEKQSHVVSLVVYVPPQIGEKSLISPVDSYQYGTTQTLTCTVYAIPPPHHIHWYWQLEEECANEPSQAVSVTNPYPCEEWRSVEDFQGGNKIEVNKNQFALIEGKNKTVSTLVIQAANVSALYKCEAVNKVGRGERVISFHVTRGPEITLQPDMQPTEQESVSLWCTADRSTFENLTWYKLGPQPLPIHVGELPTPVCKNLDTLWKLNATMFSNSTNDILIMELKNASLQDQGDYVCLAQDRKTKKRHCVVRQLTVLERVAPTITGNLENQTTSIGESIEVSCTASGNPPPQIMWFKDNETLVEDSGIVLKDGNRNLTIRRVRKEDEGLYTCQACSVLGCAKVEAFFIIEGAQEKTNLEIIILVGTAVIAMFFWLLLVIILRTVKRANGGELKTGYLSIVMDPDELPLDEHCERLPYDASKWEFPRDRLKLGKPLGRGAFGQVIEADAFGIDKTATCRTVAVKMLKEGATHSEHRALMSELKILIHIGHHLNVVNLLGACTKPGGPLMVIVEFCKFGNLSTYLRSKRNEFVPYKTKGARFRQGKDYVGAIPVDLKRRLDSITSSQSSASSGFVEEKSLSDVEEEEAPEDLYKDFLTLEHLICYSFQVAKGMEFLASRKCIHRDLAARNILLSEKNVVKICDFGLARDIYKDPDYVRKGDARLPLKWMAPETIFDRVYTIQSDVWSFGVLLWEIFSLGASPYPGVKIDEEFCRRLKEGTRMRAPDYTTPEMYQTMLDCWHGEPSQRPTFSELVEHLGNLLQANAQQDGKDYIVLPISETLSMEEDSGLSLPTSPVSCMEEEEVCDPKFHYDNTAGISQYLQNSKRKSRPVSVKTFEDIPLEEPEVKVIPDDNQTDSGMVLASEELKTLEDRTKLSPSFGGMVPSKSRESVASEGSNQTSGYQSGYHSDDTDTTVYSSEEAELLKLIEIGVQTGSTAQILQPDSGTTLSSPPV
T3 sequence (P49841 whole entry): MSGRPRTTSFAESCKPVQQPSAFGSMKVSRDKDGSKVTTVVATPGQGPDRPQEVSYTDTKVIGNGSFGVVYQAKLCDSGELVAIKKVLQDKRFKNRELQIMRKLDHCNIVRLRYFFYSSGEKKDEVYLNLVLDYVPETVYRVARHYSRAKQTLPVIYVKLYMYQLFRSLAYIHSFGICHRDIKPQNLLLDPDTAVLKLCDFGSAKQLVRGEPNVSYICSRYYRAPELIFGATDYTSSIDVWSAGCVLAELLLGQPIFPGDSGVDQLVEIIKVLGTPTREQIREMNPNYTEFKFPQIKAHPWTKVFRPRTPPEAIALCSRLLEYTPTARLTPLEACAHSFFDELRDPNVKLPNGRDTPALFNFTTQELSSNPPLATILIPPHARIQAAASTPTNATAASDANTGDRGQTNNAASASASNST
T1 sequence (O60674 whole entry): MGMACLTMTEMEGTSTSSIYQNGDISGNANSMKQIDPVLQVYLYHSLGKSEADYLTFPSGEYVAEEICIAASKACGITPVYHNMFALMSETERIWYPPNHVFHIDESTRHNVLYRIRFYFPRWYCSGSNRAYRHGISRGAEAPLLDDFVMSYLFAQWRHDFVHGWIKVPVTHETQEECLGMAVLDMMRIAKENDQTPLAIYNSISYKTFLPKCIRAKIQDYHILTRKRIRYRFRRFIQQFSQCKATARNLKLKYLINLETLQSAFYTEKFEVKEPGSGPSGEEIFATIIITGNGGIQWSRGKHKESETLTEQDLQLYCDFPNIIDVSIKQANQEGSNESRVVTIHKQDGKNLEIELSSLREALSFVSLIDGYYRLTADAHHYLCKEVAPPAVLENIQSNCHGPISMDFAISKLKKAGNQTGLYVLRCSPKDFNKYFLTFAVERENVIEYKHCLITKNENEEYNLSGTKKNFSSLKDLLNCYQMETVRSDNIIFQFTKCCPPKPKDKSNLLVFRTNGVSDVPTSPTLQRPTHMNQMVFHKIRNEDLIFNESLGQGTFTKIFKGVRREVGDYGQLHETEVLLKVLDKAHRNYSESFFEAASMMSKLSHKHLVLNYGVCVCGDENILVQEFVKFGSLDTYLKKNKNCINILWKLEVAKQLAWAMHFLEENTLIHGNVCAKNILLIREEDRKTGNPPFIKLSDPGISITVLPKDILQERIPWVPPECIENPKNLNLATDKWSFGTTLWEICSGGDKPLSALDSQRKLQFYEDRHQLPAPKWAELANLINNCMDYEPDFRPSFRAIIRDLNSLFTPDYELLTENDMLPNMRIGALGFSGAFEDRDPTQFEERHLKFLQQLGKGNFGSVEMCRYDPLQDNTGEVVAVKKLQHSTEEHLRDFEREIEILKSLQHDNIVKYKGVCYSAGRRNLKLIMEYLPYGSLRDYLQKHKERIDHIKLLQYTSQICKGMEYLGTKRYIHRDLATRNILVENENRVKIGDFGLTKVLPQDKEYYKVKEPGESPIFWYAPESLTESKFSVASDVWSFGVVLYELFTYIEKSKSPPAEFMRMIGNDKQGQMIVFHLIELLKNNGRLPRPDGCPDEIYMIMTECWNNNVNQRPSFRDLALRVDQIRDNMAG
T2 sequence (P36888 27-993): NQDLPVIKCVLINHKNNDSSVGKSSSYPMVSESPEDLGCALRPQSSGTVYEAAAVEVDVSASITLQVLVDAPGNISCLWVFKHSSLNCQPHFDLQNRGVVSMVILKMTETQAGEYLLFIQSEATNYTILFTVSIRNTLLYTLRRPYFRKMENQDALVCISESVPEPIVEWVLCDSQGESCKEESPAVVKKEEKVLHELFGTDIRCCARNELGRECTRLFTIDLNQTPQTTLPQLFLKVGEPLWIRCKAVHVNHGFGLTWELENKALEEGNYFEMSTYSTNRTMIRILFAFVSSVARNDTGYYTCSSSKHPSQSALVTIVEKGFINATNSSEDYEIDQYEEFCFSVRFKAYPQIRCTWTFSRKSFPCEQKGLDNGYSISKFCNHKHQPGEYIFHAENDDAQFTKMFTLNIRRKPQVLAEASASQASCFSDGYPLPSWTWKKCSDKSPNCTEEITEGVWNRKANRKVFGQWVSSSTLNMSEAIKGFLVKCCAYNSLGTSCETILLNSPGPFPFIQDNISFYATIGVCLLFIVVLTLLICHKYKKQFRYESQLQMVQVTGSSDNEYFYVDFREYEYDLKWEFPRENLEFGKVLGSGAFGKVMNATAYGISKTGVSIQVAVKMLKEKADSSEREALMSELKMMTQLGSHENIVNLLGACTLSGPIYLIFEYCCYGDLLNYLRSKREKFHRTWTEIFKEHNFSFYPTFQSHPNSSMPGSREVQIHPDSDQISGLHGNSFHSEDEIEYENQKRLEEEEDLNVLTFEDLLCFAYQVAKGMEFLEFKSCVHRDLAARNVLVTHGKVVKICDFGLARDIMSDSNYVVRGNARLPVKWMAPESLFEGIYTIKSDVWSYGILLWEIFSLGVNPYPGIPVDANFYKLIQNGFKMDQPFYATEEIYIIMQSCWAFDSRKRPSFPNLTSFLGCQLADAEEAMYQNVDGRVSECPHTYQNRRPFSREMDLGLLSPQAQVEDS
T4 sequence (P23443 whole entry): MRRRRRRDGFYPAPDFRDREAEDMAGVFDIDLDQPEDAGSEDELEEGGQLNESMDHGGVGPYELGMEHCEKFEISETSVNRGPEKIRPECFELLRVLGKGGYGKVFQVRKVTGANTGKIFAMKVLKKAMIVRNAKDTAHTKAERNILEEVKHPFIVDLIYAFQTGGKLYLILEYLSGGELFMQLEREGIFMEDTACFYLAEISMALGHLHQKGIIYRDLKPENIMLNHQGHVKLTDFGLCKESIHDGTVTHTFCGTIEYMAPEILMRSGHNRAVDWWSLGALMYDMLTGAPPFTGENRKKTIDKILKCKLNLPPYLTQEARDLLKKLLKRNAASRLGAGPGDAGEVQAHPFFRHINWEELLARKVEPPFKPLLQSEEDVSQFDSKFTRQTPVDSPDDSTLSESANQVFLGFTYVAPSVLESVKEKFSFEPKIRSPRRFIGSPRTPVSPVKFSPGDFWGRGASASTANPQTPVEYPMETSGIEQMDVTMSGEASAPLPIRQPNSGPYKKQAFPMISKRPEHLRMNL

SMILES | WntCondMedia_Alk Phos C2C12 IC50/EC50 [1] [µM] | mSTC-1 GLP1 Secretion IC50/EC50 (STC-1 cell line) [µM] | hNCI-H716 GLP1 Secretion IC50/EC50 (NCI-H716 cells) [µM] | WntCondMedia_bCatenin C2C12 IC50/EC50 [2] [µM] | VEGF_ADSC\ECFC Angio Hoechst NucArea IC50/EC50 [3] [µM] | Basal_Viability ATP DLD-1 IC50/EC50 (DLD-1) [µM] | Basal_Viability ATP HT-29 IC50/EC50 (HT-29) [µM] | hJAK2 LANCE IC50/EC50 (hJAK2) [µM] | 5mMGluc_INS1E SecretionMod IC50/EC50 (INS-1E cells) [µM] | VEGF_ADSC\ECFC Angio CD31 TubeArea IC50/EC50 [4] [µM] | GSK3b inh pretreated_Viability ATP HCT116 IC50/EC50 [5] [µM] | hFLT3 LANCE IC50/EC50 (hFLT3) [µM] | Hela CellCycMod PI 2N IC50/EC50 (HeLa cells) [µM] | Hela CellCycMod PI 4N IC50/EC50 (HeLa cells) [µM] | Hela CellCycMod PI MI IC50/EC50 (HeLa cells) [µM] | Hela CellCycMod PI Cell Number IC50/EC50 (HeLa cells) [µM] | hGSK3b LANCE IC50/EC50 (hGSK3b) [µM] | hp70S6K1 LANCE IC50/EC50 (hp70S6K1 (RPS6KB1)) [µM] | hKDR LANCE IC50/EC50 (hKDR) [µM] | Basal_Viability ATP HCT116 IC50/EC50 (HCT116) [µM] | further results
C#C[C@]1(O)CC[C@H]2[C@@H]3CCc4cc(OC5CCCC5)ccc4[C@H]3CC[C@@]21C [NCGC00166146-02] | > 20 | > 40 | 17.5795 | > 20 |  |  |  |  |  |  |  |  |  |  |  |  |  |  |  |  | 
CC(=O)Oc1ccc(C2(c3ccc(OC(C)=O)cc3)Oc3ccccc3NC2=O)cc1 [NCGC00182998-01] | 13.9611 |  |  | > 20 | > 10 | 19.7291 | > 20 | > 20 | > 33.33 | 2.2736 | 3.2604 | > 20 | > 10 | > 10 | > 10 | 5.7532 | > 20 | > 20 | > 20 |  | Basal_Viability ATP SNU-C1 IC50/EC50 (SNU-C1): > 20 µM; Basal_Viability ATP Colo 320 IC50/EC50 (Colo320): > 20 µM; Basal_Viability ATP RKO IC50/EC50 (RKO): 9.2255 µM; Basal_Viability ATP SW480 IC50/EC50 (SW480): 9.1881 µM; Hela CellCycMod PI S Phase IC50/EC50 (HeLa cells): > 10 µM
c1ccc2c(c1)Sc1ccccc1N2CC1CN2CCC1CC2 (stereo not shown) [NCGC00183046-03] | > 20 | > 40 | > 40 | > 20 | > 10 |  |  |  |  | 9.4389 | > 20 |  |  |  |  |  |  |  |  | > 20 | Basal_Viability ATP DLD-1 IC50/EC50 (DLD-1; basal): > 20 µM; Basal_Viability ATP HT-29 IC50/EC50 (HT-29; basal): > 20 µM; Basal_Viability ATP SNU-C1 IC50/EC50 (SNU-C1; basal): > 20 µM; Basal_Viability ATP Colo 320 IC50/EC50 (Colo320; basal): > 20 µM; Basal_Viability ATP RKO IC50/EC50 (RKO; basal): 8.4586 µM; Basal_Viability ATP SW480 IC50/EC50 (SW480; basal): 5.431 µM
Cc1ccc([N+](=O)[O-])[c]2c1[O][Hg]2 [NCGC00249897-01] | 0.1552 | 0.0972 | 9.871 | 1.5133 | 1.087 |  |  | > 20 | > 33.33 | 0.6678 | > 2.2222 | 10.38 | > 10 | > 10 | 1.2179 | 0.3851 | 8.37 | > 20 | 16.8 | 2.8299 | Basal_Viability ATP DLD-1 IC50/EC50 (DLD-1; basal): 1.6221 µM; Basal_Viability ATP HT-29 IC50/EC50 (HT-29; basal): 1.4429 µM; Basal_Viability ATP SNU-C1 IC50/EC50 (SNU-C1; basal): 0.2022 µM; Basal_Viability ATP Colo 320 IC50/EC50 (Colo320; basal): 0.935 µM; Basal_Viability ATP SW480 IC50/EC50 (SW480; basal): 1.1294 µM
Cc1ccc2nc(N)[nH]c(=O)c2c1Sc1ccncc1.Cl.Cl [NCGC00263580-01] | 0.2444 |  |  | 0.7099 | > 10 | > 20 | 4.747 | > 20 |  | 7.3662 | 0.8299 | > 20 | > 10 | > 10 | > 10 | > 10 | > 20 | 17.8 | > 20 | 3.495 | Basal_Viability ATP SNU-C1 IC50/EC50 (SNU-C1): > 20 µM; Basal_Viability ATP Colo 320 IC50/EC50 (Colo320): > 20 µM; Basal_Viability ATP RKO IC50/EC50 (RKO): 0.3429 µM; Basal_Viability ATP SW480 IC50/EC50 (SW480): 2.241 µM; Hela CellCycMod PI S Phase IC50/EC50 (HeLa cells): > 10 µM
